{"source": "patent US20060020110A1", "about": "“Synthetic peptides that bind to the hepatitis B virus core and E antigens” (priority 2000, published 2006)", "key": {"HBcAg [1]": {"biological_target": "T1, HBcAg (Hepatitis B virus genotype D subtype ayw, UniProt P03146)", "T1 sequence (P03146 whole entry)": "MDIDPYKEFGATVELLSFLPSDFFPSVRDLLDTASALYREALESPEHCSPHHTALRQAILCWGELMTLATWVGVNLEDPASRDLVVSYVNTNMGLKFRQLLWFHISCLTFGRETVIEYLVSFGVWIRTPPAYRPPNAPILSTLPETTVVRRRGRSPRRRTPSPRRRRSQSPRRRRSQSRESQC", "conditions": "for OD at 405 nm to indicated antigen: HBcAg 0.2 μg/well / OD at 405 nm to indicated antigen: HBcAg 2 μg/well: support-bound peptide; for OD at 490 nm, HBcAg binding to support-bound amino terminal deletion peptides: HBcAg added at 5 μg/ml", "from_the_text": "(§1) One approach to rational drug design involves sequential amino acid deletion of a known binding partner starting from either the amino or carboxy termini. Amino-terminal deletions of the binding partners of SEQ. ID. Nos. 5 and 17 were made and these peptide fragments were joined to a support and analyzed for the ability to bind HBcAg. […] ID. […] The amino-terminal deletions of the peptide of SEQ. ID. […] The amino-terminal deletion products of the peptide of SEQ. ID. […] ID.\nTo determine whether a candidate binding partner bound to HBcAg and/or HbeAg, a multimeric support-based binding assay was performed. Accordingly, synthetic peptides corresponding to the VH and VL domains of the sequenced mAbs were passively adsorbed to 96 well microplates in serial dilutions starting at 200 μg/ml. The peptide coated plates were then incubated with HBcAg and HBeAg serially diluted in PBS-GT. The amount of HBcAg and HBeAg bound by the peptides was then detected using a mAb directed to an epitope common to HBcAg and HBeAg (See Sällberg et al., J General Virology 74:1335-1340 (1993), herein expressly incorportaed by reference in its entirety) diluted 1:3000 in PBS-GT. The quantity of bound mAb was determined by addition by peroxidase labeled rabbit anti-mouse IgG (P260, Dako A S, Denmark). The plates were developed by incubation with ortho-phenylene-diamine (Sigma) and the absorbance at 492 nm was evaluated.\nThe converse of an aspect of this experiment was also performed. That is, various dilutions of support-bound binding partners (SEQ. ID. Nos. 5, 16, 17, 28, and 29) were contacted with 10 μg/ml of HBcAg and binding was evaluated. ID."}, "HBcAg [2]": {"biological_target": "T1, HBcAg", "conditions": "peptide added prior to addition of mAb; uninhibited control mean OD 0.871", "from_the_text": "as §1\nVariations of the characterization assays described above include competitive binding assays. […] Initial experiments were conducted by contacting binding partner to HBcAg prior to introducing the antibody. […] ID. […] ID. […] ID. […] ID. […] ID. […] ID."}, "HBcAg [3]": {"biological_target": "T1, HBcAg", "conditions": "for OD at 490 nm, bound peptide SEQ. ID. No. 74: HBcAg coated 1 μg/ml, 5 μg SEQ. ID. No. 74 + 5 μg HBcAg peptide, no inhibitor OD 1.454; for Std. Deviation from the mean: deviation of the OD from the mean OD of all peptides", "experimental": "In this experiment, microplates were coated overnight with 1 μg/ml HBcAg and, subsequently, a 100 μl mixture containing 5 μg of the peptide […] […] The HBcAg peptides were approximately 20 amino acids in length and corresponded to regions of HBcAg spanning amino acid residues 11-183. The experiment was performed in triplicate."}}}
{"substance": "ELTRLTSEDSAVYFCARGDY (Synthetically prepared amino acid sequence) [Peptide 9]", "values": [{"measurement": "OD at 405 nm to indicated antigen: HBcAg 0.2 μg/well", "setting": "HBcAg [1]", "value": 0.195}, {"measurement": "OD at 405 nm to indicated antigen: HBcAg 2 μg/well", "setting": "HBcAg [1]", "value": 0.574}]}
{"substance": "CRASQSVSTSSYSYMHWY [SEQ. ID. No. 54]", "values": [{"measurement": "OD at 490 nm, HBcAg binding to support-bound amino terminal deletion peptides", "setting": "HBcAg [1]", "value": 1.415}]}
{"substance": "GASVKLSCKASGYIFTS [SEQ. ID. No. 41]", "values": [{"measurement": "OD at 490 nm, mAb 4-2 binding to HBcAg", "setting": "HBcAg [2]", "value": 0.205}, {"measurement": "OD at 490 nm, HBcAg binding to support-bound amino terminal deletion peptides", "setting": "HBcAg [1]", "value": 2.863}]}
{"substance": "LSCKASGYIFTS [SEQ. ID. No. 46]", "values": [{"measurement": "OD at 490 nm, mAb 4-2 binding to HBcAg", "setting": "HBcAg [2]", "value": 0.777}, {"measurement": "OD at 490 nm, HBcAg binding to support-bound amino terminal deletion peptides", "setting": "HBcAg [1]", "value": 0.565}]}
{"substance": "ALESPEHCSPHHTALRQAIL [SEQ. ID. No. 99]", "values": [{"measurement": "OD at 490 nm, bound peptide SEQ. ID. No. 74", "setting": "HBcAg [3]", "value": 1.372}, {"measurement": "Std. Deviation from the mean", "setting": "HBcAg [3]", "value": 0.665}]}
{"substance": "SCRASQSVSTSSYSYMHWY [SEQ. ID. No. 53]", "values": [{"measurement": "OD at 490 nm, HBcAg binding to support-bound amino terminal deletion peptides", "setting": "HBcAg [1]", "value": 1.452}]}
{"substance": "CKASGYIFTSYDIDWVRQTP (Synthetically prepared amino acid sequence) [Peptide 3]", "values": [{"measurement": "OD at 405 nm to indicated antigen: HBcAg 0.2 μg/well", "setting": "HBcAg [1]", "value": 0.187}, {"measurement": "OD at 405 nm to indicated antigen: HBcAg 2 μg/well", "setting": "HBcAg [1]", "value": 0.525}]}
{"substance": "SVSTSSYSYMHWY [SEQ. ID. No. 59]", "values": [{"measurement": "OD at 490 nm, HBcAg binding to support-bound amino terminal deletion peptides", "setting": "HBcAg [1]", "value": 0.305}]}
{"substance": "SSYSYMHWY [SEQ. ID. No. 63]", "values": [{"measurement": "OD at 490 nm, HBcAg binding to support-bound amino terminal deletion peptides", "setting": "HBcAg [1]", "value": 0.311}]}
{"substance": "TNMGLKFRQLLWFHISCLTF [SEQ. ID. No. 104]", "values": [{"measurement": "Effect on binding of peptide SEQ. ID. No. 74 to HBcAg (in words)", "setting": "HBcAg [3]; 5 μg HBcAg peptide + 5 μg SEQ. ID. No. 74, triplicate", "value": "consistently reduced the binding"}, {"measurement": "OD at 490 nm, bound peptide SEQ. ID. No. 74", "setting": "HBcAg [3]", "value": 0.058}, {"measurement": "Std. Deviation from the mean", "setting": "HBcAg [3]", "value": "−1.984"}]}
{"substance": "ASVKLSCKASGYIFTS [SEQ. ID. No. 42]", "values": [{"measurement": "OD at 490 nm, mAb 4-2 binding to HBcAg", "setting": "HBcAg [2]", "value": 0.207}, {"measurement": "OD at 490 nm, HBcAg binding to support-bound amino terminal deletion peptides", "setting": "HBcAg [1]", "value": 3.219}]}
{"substance": "KLSCKASGYIFTS [SEQ. ID. No. 45]", "values": [{"measurement": "OD at 490 nm, mAb 4-2 binding to HBcAg", "setting": "HBcAg [2]", "value": 0.808}, {"measurement": "OD at 490 nm, HBcAg binding to support-bound amino terminal deletion peptides", "setting": "HBcAg [1]", "value": 3.694}]}
{"substance": "YDIDWVRQTPEQGLEWIGWI (Synthetically prepared amino acid sequence) [Peptide 4]", "values": [{"measurement": "OD at 405 nm to indicated antigen: HBcAg 0.2 μg/well", "setting": "HBcAg [1]", "value": 0.202}, {"measurement": "OD at 405 nm to indicated antigen: HBcAg 2 μg/well", "setting": "HBcAg [1]", "value": 0.551}]}
{"substance": "STSSYSYMHWY [SEQ. ID. No. 61]", "values": [{"measurement": "OD at 490 nm, HBcAg binding to support-bound amino terminal deletion peptides", "setting": "HBcAg [1]", "value": 0.372}]}
{"substance": "GRETVIEYLVSFGVWIRTPP [SEQ. ID. No. 106]", "values": [{"measurement": "OD at 490 nm, bound peptide SEQ. ID. No. 74", "setting": "HBcAg [3]", "value": 0.832}, {"measurement": "Std. Deviation from the mean", "setting": "HBcAg [3]", "value": "−0.423"}]}
{"substance": "SYMHWY [SEQ. ID. No. 65]", "values": [{"measurement": "OD at 490 nm, HBcAg binding to support-bound amino terminal deletion peptides", "setting": "HBcAg [1]", "value": 0.218}]}
{"substance": "ATVELLSFLPSDFFPSVRDL [SEQ. ID. No. 96]", "values": [{"measurement": "OD at 490 nm, bound peptide SEQ. ID. No. 74", "setting": "HBcAg [3]", "value": 1.387}, {"measurement": "Std. Deviation from the mean", "setting": "HBcAg [3]", "value": 0.696}]}
{"substance": "TSSYSYMHWY [SEQ. ID. No. 62]", "values": [{"measurement": "OD at 490 nm, HBcAg binding to support-bound amino terminal deletion peptides", "setting": "HBcAg [1]", "value": 0.317}]}
{"substance": "YSYMHWY [SEQ. ID. No. 64]", "values": [{"measurement": "OD at 490 nm, HBcAg binding to support-bound amino terminal deletion peptides", "setting": "HBcAg [1]", "value": 0.245}]}
{"substance": "LVTVSAAKTTPPSVYPLVPV (Synthetically prepared amino acid sequence) [Peptide 35]", "values": [{"measurement": "OD at 405 nm to indicated antigen: HBcAg 0.2 μg/well", "setting": "HBcAg [1]", "value": 0.198}, {"measurement": "OD at 405 nm to indicated antigen: HBcAg 2 μg/well", "setting": "HBcAg [1]", "value": 0.59}]}
{"substance": "GYIFTS [SEQ. ID. No. 52]", "values": [{"measurement": "OD at 490 nm, mAb 4-2 binding to HBcAg", "setting": "HBcAg [2]", "value": 0.903}, {"measurement": "OD at 490 nm, HBcAg binding to support-bound amino terminal deletion peptides", "setting": "HBcAg [1]", "value": 0.414}]}
{"substance": "SDFFPSVRDLLDTASALYRE [SEQ. ID. No. 97]", "values": [{"measurement": "OD at 490 nm, bound peptide SEQ. ID. No. 74", "setting": "HBcAg [3]", "value": 1.576}, {"measurement": "Std. Deviation from the mean", "setting": "HBcAg [3]", "value": 1.077}]}
{"substance": "VKLSCKASGYIFTS [SEQ. ID. No. 44]", "values": [{"measurement": "OD at 490 nm, mAb 4-2 binding to HBcAg", "setting": "HBcAg [2]", "value": 0.152}, {"measurement": "OD at 490 nm, HBcAg binding to support-bound amino terminal deletion peptides", "setting": "HBcAg [1]", "value": 3.703}]}
{"substance": "RASQSVSTSSYSYMHWY [SEQ. ID. No. 55]", "values": [{"measurement": "OD at 490 nm, HBcAg binding to support-bound amino terminal deletion peptides", "setting": "HBcAg [1]", "value": 0.429}]}
